Laboratory results published in patent US8940744B2, “Pyrazolopyrimidine compounds as kinase inhibitors” (Principia Biopharma Inc., priority 2012, dated 2015).
Like-named read-outs stand apart in the source and are kept apart here.

What was measured:
[1] = molecular target: human recombinant Btk (Homo sapiens (Human), UniProt Q06187); experiment: Btk Enzymatic Activity Assay (Caliper-based kinase assay); format: biochemical
Protocol: A Caliper-based kinase assay (Caliper Life Sciences, Hopkinton, Mass.) was used to measure inhibition of Btk kinase activity of a compound of the present disclosure. […] The reaction was then terminated with EDTA, final concentration 20 mM and the phosphorylated reaction product was quantified on a Caliper Desktop Profiler (Caliper LabChip 3000). […] This value is presented as the IC50.

[2] = molecular target: protein target (Homo sapiens (Human), UniProt Q06187); experiment: Reversibility of binding (compound in solution before and after target perturbation, HPLC-MS/MS)
Protocol: The following approach was developed to differentiate compounds that form irreversible covalent bond with their targets, such as non-cyano containing acrylamide compounds, from compound that form reversible covalent bond i.e., compounds and/or pharmaceutically acceptable salts of the present disclosure. […] The reactions were then treated with perturbations including both denaturation with 5 M guanidine hydrochloride and digestion with trypsin, disrupting proper folding of the target. […] The concentration of compound in solution was assessed both preceding and following perturbation using high performance liquid chromatography (HPLC) coupled to tandem mass spectrometry.

[3] = human recombinant Btk 0.5 nM, ATP 16 μM, room temperature 3 h

Sequence of human recombinant Btk (Q06187 whole entry): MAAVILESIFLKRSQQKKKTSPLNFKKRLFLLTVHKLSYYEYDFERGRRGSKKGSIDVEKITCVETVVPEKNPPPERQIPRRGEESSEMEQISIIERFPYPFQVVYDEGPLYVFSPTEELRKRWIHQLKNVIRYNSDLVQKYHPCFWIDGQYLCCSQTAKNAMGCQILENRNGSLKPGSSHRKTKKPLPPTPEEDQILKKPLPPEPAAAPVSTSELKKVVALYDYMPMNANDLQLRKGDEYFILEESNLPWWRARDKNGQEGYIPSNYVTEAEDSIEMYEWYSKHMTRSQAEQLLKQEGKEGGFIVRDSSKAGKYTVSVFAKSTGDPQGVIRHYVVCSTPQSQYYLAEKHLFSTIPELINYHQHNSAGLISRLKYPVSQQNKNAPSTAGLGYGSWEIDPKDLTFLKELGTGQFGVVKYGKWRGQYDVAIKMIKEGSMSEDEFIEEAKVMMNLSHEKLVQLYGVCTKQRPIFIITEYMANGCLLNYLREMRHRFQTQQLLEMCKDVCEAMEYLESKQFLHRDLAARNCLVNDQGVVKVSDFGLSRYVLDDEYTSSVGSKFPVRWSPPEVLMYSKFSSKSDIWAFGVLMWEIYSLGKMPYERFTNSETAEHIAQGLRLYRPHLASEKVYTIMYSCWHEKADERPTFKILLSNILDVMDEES
Sequence of protein target (Q06187 whole entry): as above

Structure (SMILES) | IC50 [1, 3] [nM] | also measured
CN(C1COC1)C(C)(C)C=C(C#N)C(=O)N1CCC[C@@H](n2nc(-c3ccc(Oc4ccccc4)cc3F)c3c(N)ncnc32)C1 [Example 13, 2-[(3R)-3-[4-amino-3-(2-fluoro-4-phenoxy-phenyl)pyrazolo[3,4-d]pyrimidin-1-yl]piperidine-1-carbonyl]-4-methyl-4-[methyl(oxetan-3-yl)amino]pent-2-enenitrile] | 0.6 | 
CC(C)(C=C(C#N)C(=O)N1CCC[C@H]1Cn1nc(-c2ccc(Oc3ccccc3)cc2F)c2c(N)ncnc21)N1CC2(COC2)C1 [Example 19a, (S)-2-(2-((4-amino-3-(2-fluoro-4-phenoxyphenyl)-1H-pyrazolo[3,4-d]pyrimidin-1-yl)methyl)pyrrolidine-1-carbonyl)-4-methyl-4-(2-oxa-6-azaspiro[3.3]heptan-6-yl)pent-2-enenitrile] |  | IC50 [1]: 5.6 nM
CC(C)(C=C(C#N)C(=O)N1CCC[C@@H](n2nc(-c3ccc(Oc4ccccc4)cc3F)c3c(N)ncnc32)C1)N1CCN(S(C)(=O)=O)CC1 [Example 25, (R)-2-(3-(4-amino-3-(2-fluoro-4-phenoxyphenyl)-1H-pyrazolo[3,4-d]pyrimidin-1-yl)piperidine-1-carbonyl)-4-methyl-4-(4-(methylsulfonyl)piperazin-1-yl)pent-2-enenitrile] | 1.4 | 
CN(C1COC1)C(C)(C)C=C(C#N)C(=O)N1CCC[C@H]1Cn1nc(-c2ccc(Oc3ccccc3)cc2F)c2c(N)ncnc21 [Example 10, 2-[(2S)-2-[[4-amino-3-(2-fluoro-4-phenoxy-phenyl)pyrazolo[3,4-d]pyrimidin-1-yl]methyl]pyrrolidine-1-carbonyl]-4-methyl-4-[methyl(oxetan-3-yl)amino]pent-2-enenitrile] | 2.1 | Compound in solution in the denatured or digested state? ([2]; after 5 M guanidine hydrochloride denaturation and trypsin digestion): yes; Compound in solution in the native state? ([2]; native (folded) target, target in excess of compound): no
CCN1CCN(C(C)(C)C=C(C#N)C(=O)N2CCC[C@@H](n3nc(-c4ccc(Oc5ccccc5)cc4F)c4c(N)ncnc43)C2)CC1 [Example 20, 2-[(3R)-3-[4-amino-3-(2-fluoro-4-phenoxy-phenyl)pyrazolo[3,4-d]-pyrimidin-1-yl]piperidine-1-carbonyl]-4-(4-ethylpiperazin-1-yl)-4-methyl-pent-2-enenitrile] | 0.9 | 
CN1CCN(C(C)(C)C=C(C#N)C(=O)N2CCC[C@H]2Cn2nc(-c3ccc(Oc4ccccc4)cc3F)c3c(N)ncnc32)CC1 [Example 8, 2-[(2S)-2-[[4-amino-3-(2-fluoro-4-phenoxyphenyl)pyrazolo[3,4-d]pyrimidin-1-yl]-methyl]pyrrolidine-1-carbonyl]-4-methyl-4-(4-methylpiperazin-1-yl)pent-2-enenitrile] |  | IC50 [1]: 3.8 nM
CC(C)(C=C(C#N)C(=O)N1CCC[C@@H](n2nc(-c3ccc(Oc4ccccc4)cc3F)c3c(N)ncnc32)C1)N1CC(O)C1 [Example 7, 2-((R)-3-(4-amino-3-(2-fluoro-4-phenoxyphenyl)-1H-pyrazolo[3,4-d]pyrimidin-1-yl)piperidine-1-carbonyl)-4-(3-hydroxyazetidin-1-yl)-4-methylpent-2-enenitrile] | 0.9 | 
CCN1CCN(C(C)(C)C=C(C#N)C(=O)N2CCC[C@H]2Cn2nc(-c3ccc(Oc4ccccc4)cc3F)c3c(N)ncnc32)CC1 [Example 8A, 2-[(2S)-2-[[4-amino-3-(2-fluoro-4-phenoxyphenyl)pyrazolo[3,4-d]pyrimidin-1-yl]-methyl]pyrrolidine-1-carbonyl]-4-methyl-4-(4-ethylpiperazin-1-yl)pent-2-enenitrile] |  | IC50 [1]: 0.9 nM
CC(C)(/C=C(\C#N)C(=O)N1CCC[C@@H](n2nc(-c3ccc(Oc4ccccc4)cc3F)c3c(N)ncnc32)C1)N1CC2(COC2)C1 [Example 19, 2-[(3R)-3-[4-amino-3-(2-fluoro-4-phenoxy-phenyl)pyrazolo[3,4-d]pyrimidin-1-yl]piperidine-1-carbonyl]-4-methyl-4-(6-oxa-2-azaspiro[3.3]heptan-2-yl)pent-2-enenitrile] | 1.5 | 
CC(C)(C=C(C#N)C(=O)N1CCC1Cn1nc(-c2ccc(Oc3ccccc3)cc2F)c2c(N)ncnc21)N1CCOCC1 (stereo not shown) [Example 15, 2-[2-[[4-amino-3-(2-fluoro-4-phenoxy-phenyl)pyrazolo[3,4-d]pyrimidin-1-yl]methyl]azetidine-1-carbonyl]-4-methyl-4-morpholino-pent-2-enenitrile] | 4.1 | 
CC(C)(C=C(C#N)C(=O)N1CCC[C@H]1Cn1nc(-c2ccc(Oc3ccccc3)cc2F)c2c(N)ncnc21)N1CCNCC1 [Example 9, 2-[(2S)-2-[[4-amino-3-(2-fluoro-4-phenoxy-phenyl)pyrazolo[3,4-d]pyrimidin-1-yl]methyl]pyrrolidine-1-carbonyl]-4-methyl-4-piperazin-1-yl-pent-2-enenitrile] | 4.7 | 
CC(C)N1CCN(C(C)(C)C=C(C#N)C(=O)N2CCC[C@@H](n3nc(-c4ccc(Oc5ccccc5)cc4F)c4c(N)ncnc43)C2)CC1 [Example 21, (R)-2-(3-(4-amino-3-(2-fluoro-4-phenoxyphenyl)-1H-pyrazolo[3,4-d]pyrimidin-1-yl)piperidine-1-carbonyl)-4-(4-isopropylpiperazin-1-yl)-4-methylpent-2-enenitrile] | 0.7 | 
CC(C)(C=C(C#N)C(=O)N1CCC[C@H]1Cn1nc(-c2ccc(Oc3ccccc3)cc2F)c2c(N)ncnc21)CN1CCOCC1 [Example 30, (S)-2-(2-((4-amino-3-(2-fluoro-4-phenoxyphenyl)-1H-pyrazolo[3,4-d]pyrimidin-1-yl)methyl)pyrrolidine-1-carbonyl)-4,4-dimethyl-5-morpholinopent-2-enenitrile] | 5.2 | 
CCN1CCN(C(C)(C)C=C(C#N)C(=O)N2CCC[C@@H](n3nc(-c4ccc(Oc5ccccc5)cc4F)c4c(N)ncnc43)C2)CC1=O [Example 34, (R)-2-(3-(4-amino-3-(2-fluoro-4-phenoxyphenyl)-1H-pyrazolo[3,4-d]pyrimidin-1-yl)piperidine-1-carbonyl)-4-(4-ethyl-3-oxopiperazin-1-yl)-4-methylpent-2-enenitrile] | 1.3 | 
CC(C)(C=C(C#N)C(=O)N1CCC[C@H]1Cn1nc(-c2ccc(Oc3ccccc3)cc2F)c2c(N)ncnc21)N1CCCC1 [Example 5, (S)-2-(2-((4-amino-3-(2-fluoro-4-phenoxyphenyl)-1H-pyrazolo[3,4-d]-pyrimidin-1-yl)-methyl)pyrrolidine-1-carbonyl)-4-methyl-4-(pyrrolidin-1-yl)pent-2-enenitrile] | 1.9 | 
CCN(C1COC1)C(C)(C)C=C(C#N)C(=O)N1CCC[C@@H](n2nc(-c3ccc(Oc4ccccc4)cc3F)c3c(N)ncnc32)C1 [Example 13a, (R)-2-(3-(4-amino-3-(2-fluoro-4-phenoxyphenyl)-1H-pyrazolo[3,4-d]pyrimidin-1-yl)piperidine-1-carbonyl)-4-(ethyl(oxetan-3-yl)amino)-4-methylpent-2-enenitrile] | 0.9 | 
CC(C)(C=C(C#N)C(=O)N1CCC[C@@H](n2nc(-c3ccc(Oc4ccccc4)cc3F)c3c(N)ncnc32)C1)N1CCC(O)CC1 [Example 18, (R)-2-(3-(4-amino-3-(2-fluoro-4-phenoxyphenyl)-1H-pyrazolo[3,4-d]pyrimidin-1-yl)piperidine-1-carbonyl)-4-(4-hydroxypiperidin-1-yl)-4-methylpent-2-enenitrile] | 0.7 | 
